The results in this text go back to article PMC11022729 (Advanced Science, 2024).

This assay concerns the target T1, human Slack (Homo sapiens, UniProt Q5JUK3).
T1 construct: host or cells: HEK293
T1 sequence (Q5JUK3 1-1230): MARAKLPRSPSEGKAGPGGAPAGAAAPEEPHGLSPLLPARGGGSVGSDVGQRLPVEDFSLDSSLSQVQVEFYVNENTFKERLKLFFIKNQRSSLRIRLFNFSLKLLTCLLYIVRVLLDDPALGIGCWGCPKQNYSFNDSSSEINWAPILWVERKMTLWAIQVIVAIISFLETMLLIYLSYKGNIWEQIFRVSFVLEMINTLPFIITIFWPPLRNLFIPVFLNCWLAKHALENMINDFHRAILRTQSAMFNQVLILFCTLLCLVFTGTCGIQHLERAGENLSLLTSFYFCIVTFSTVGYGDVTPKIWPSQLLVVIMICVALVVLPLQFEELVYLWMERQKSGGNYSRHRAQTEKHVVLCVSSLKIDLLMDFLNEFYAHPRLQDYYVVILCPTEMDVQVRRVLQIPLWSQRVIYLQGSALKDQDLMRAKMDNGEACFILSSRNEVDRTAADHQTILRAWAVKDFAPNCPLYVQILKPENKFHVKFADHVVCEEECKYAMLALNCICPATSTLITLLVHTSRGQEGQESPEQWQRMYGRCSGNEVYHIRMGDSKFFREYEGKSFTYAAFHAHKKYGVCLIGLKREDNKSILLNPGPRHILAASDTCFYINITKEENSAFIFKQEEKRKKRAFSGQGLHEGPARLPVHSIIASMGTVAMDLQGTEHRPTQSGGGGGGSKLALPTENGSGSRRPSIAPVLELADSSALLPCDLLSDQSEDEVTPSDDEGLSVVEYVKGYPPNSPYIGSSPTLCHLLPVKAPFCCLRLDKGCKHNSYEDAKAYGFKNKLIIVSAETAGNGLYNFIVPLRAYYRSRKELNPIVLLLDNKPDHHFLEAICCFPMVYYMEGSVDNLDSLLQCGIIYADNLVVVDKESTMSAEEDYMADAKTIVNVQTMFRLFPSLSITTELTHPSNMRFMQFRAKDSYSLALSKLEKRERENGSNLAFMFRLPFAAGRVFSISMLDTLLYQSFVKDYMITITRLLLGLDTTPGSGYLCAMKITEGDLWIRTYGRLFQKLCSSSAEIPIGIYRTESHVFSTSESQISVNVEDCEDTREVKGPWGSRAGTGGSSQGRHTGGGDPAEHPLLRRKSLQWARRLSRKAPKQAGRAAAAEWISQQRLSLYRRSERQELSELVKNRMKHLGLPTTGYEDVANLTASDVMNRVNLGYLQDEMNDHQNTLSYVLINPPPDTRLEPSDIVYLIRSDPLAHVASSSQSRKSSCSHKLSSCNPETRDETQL
The assay can be described thus: FluxOR potassium ion channel assay in HEK-Slack cells. Type of assay: cell-based. As for the experimental part:
The functional activity of this series of compounds against human Slack was determined using a cell‐based FluxOR potassium ion channel assay in cultured HEK293 cells stably expressing human Slack (herein referred to as HEK‐Slack cells) and a Na^+‐free assay buffer to prevent compound‐independent Slack activation by monovalent cations.^[ [14], [24] ^] […] Of the 114 newly synthesized compounds, 31 acted as Slack activators to varying extents. Accordingly, we deemed eight of these as the most interesting candidates.
To determine the Slack‐activating efficacy and potency of the novel compounds, a commercial FluxOR potassium ion channel assay (#10 017; Invitrogen) was used. HEK‐Slack cells were plated at a density of 50 000 cells per well on a poly‐D‐lysine coated (75 µg mL^−1, Sigma–Aldrich) 96‐well, black‐walled microplate with clear bottom (#655 090; Greiner Bio‐One) in DMEM (100 µL per well) containing 10% FBS and 1% penicillin/streptomycin 24 h prior to assaying. In the initial experiments shown in Figure S3A–F (Supporting Information), HEK‐Slack cells were plated at a density of 100 000 cells/well 48 h prior to the assay. On the day of the experiment, the cells were loaded with FluxOR dye according to the manufacturer's protocol. A Na^+‐free assay buffer, adjusted to pH 7.4 with KOH, containing 140 mM choline chloride, 5 mM KCl, 2 mM CaCl2, 2 mM MgSO4, 10 mM HEPES, and 5.55 mM glucose was used. To reduce background fluorescence, all assay components were complemented with a 10% BackDrop Background Suppressor (#B10511; Invitrogen).
All compounds were prepared as a 333 mM stock in DMSO and diluted on the experimental day to a final concentration of 100, 50, 25, 12.5, 6.25, 3.125, or 1.5625 µM in an assay buffer with DMSO adjusted to 0.03%. Before treatment, the cells were washed, and the medium was exchanged for the assay buffer. In a total volume of 90 µL per well, the cells were then incubated for 30 min at 37 °C with compounds at the indicated concentrations, or 0.03% DMSO alone as the vehicle. […] Fluorescence was measured using an Infinite M200 microplate reader (Tecan) with excitation at 485 nm (9 nm bandwidth) and emission at 525 nm (20 nm bandwidth) in the bottom read mode. First, the baseline fluorescence of the individual wells was established. Thereafter cells were stimulated with 20 µL Tl2SO4 (5 mM) solution injected at 100 µL s^−1, and fluorescence was further recorded for 100 s. Assays were run in triplicate. For all time points, the ratio of fluorescence to baseline fluorescence was calculated first for individual wells, and the average was then used.
Dose‐response curves comprising six concentrations were obtained in triplets using fluorescence/fluorescenceBaseline ratios at the 100th s.

[1] abbreviates: HEK-Slack cells, Na+-free assay buffer, mean (95% confidence interval).

Where “and” joins values, the source holds several entries; their conditions need not be identical. Equal values may be shown once.

On to `O=C(O)COCCN1CCN(C2=Nc3ccccc3Oc3ccc(Cl)cc32)CC1` [Compound 6], for which the Emax (commonly the maximal effect, on the per cent scale that the assay sets) turned out to be 96.2%. Further, under setting [1], the EC50 (as a rule, the midpoint of the concentration-response curve) is 30 µM and 30.3 µM.

In turn, `CN1CCN(C2=Nc3ccccc3Oc3ccc(Cl)cc32)CC1` [Loxapine, reference compound] returned an Emax of 100%. This compound also returned an EC50 under setting [1] of 20.7 µM. The EC50 (first preliminary experiments, Na+-free buffer with 2 mM Ca2+, 2 mM Mg2+ and 0.03% DMSO) came to 23.4 µM.
